Test results as given in patent US20230148599A1, “FUNGICIDAL MIXTURES CONTAINING PYRAZOLE DERIVATIVES” (FMC Corporation, priority 2020, published 2023).

Legend:
Assay type in all cases: in vivo
Alternaria solani [1] = assay: Test F1 (comparative): tomato early blight, tomato seedlings; conditions: 100 = 100% disease control
Text: (§1) General protocol for preparing test suspensions for Tests A1-F1: the test compounds were first dissolved in acetone in an amount equal to 3% of the final volume and then suspended at the desired concentration (in ppm) in acetone and purified water (50/50 mix by volume) containing 250 ppm of the surfactant PEG400 (polyhydric alcohol esters). The resulting test suspensions were then used in Tests A1-F1.
(§2) The test suspension was sprayed to the point of run-off on tomato seedlings. The following day the seedlings were inoculated with a spore suspension of Alternaria solani (the causal agent of tomato early blight) and incubated in a saturated atmosphere at 27° C. for 48 h, and then moved to a growth chamber at 20° C. for 3 days, after which time visual disease ratings were made.
(§3) A rating of 100 indicates 100% disease control and a rating of 0 indicates no disease control (relative to the controls).

Botrytis cinerea [2] = assay: Test E1 (comparative): tomato Botrytis, tomato seedlings; conditions: 100 = 100% disease control
Text: as §1
as §2, with “Botrytis cinerea” for “Alternaria solani”, “Botrytis)” for “early blight)”, “20°” for “27°”, “24°” for “20°”
as §3

[3] = system: Puccinia recondita f. sp. tritici; assay: Test B1 (comparative): wheat leaf rust, wheat seedlings; conditions: 100 = 100% disease control
Text: as §1
The test solution was sprayed to the point of run-off on wheat seedlings. The following day the seedlings were inoculated with a spore suspension of Puccinia recondita f. sp. tritici (the causal agent of wheat leaf rust) and incubated in a saturated atmosphere at 20° C. for 24 h, and then moved to a growth chamber at 20° C. for 7 days, after which time disease ratings were made.
as §3

[4] = system: Blumeria graminis f. sp. tritici; assay: Test C1 (comparative): wheat powdery mildew, wheat seedlings; conditions: 100 = 100% disease control
Text: as §1
The test suspension was sprayed to the point of run-off on wheat seedlings. The following day the seedlings were inoculated with a spore dust of Blumeria graminis f. sp. tritici, (also known as Erysiphe graminis f. sp. tritici, the causal agent of wheat powdery mildew) and incubated in a growth chamber at 20° C. for 8 days, after which time visual disease ratings were made.
as §3

Septoria tritici [5] = assay: Test A1 (comparative): wheat leaf blotch, wheat seedlings; conditions: 100 = 100% disease control, 0 = no control
Text: as §1
The test solution was sprayed to the point of run-off on wheat seedlings. The following day the seedlings were inoculated with a spore suspension of Septoria tritici (the causal agent of wheat leaf blotch) and incubated in a saturated atmosphere at 24° C. for 48 h, and then moved to a growth chamber at 20° C. for 17 days, after which time disease ratings were made.
as §3

Botrytis cinerea [6] = assay: Test E: tomato Botrytis, preventive spray on tomato seedlings; conditions: 50 ppm, 100 = 100% disease control, 0 = no control
Procedure, shortened: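 Compound suspended in 50/50 acetone/water with 250 ppm PEG400 surfactant and sprayed to run-off on tomato seedlings; Botrytis cinerea spores applied the next day. Incubation 48 h at 20° C in saturated atmosphere, then 3 days at 24° C. Visual rating 0–100% disease control relative to controls.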

Alternaria solani [7] = assay: Test F: tomato early blight, preventive spray on tomato seedlings; conditions: 50 ppm, 100 = 100% disease control, 0 = no control
Procedure, shortened: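 Tomato seedlings were sprayed to run-off with compound suspended in acetone/water (50/50) with 250 ppm PEG400 and inoculated with Alternaria solani spores the next day. Plants were held 48 h at 27 °C in saturated humidity, then 3 days at 20 °C. Disease control was rated visually from 0 to 100 against untreated controls.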

Phakopsora pachyrhizi = assay: Test D: Asian soybean rust, preventive spray on soybean seedlings; conditions: 50 ppm, 100 = 100% disease control, 0 = no control
Procedure, shortened: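 Compounds in acetone/water (50/50) with 250 ppm PEG400, dosed in ppm, sprayed to run-off on soybean seedlings; inoculated with P. pachyrhizi spores next day. Held 24 h at 22 °C in saturated air, then 8 days at 22 °C; visual rating of disease control, 0–100, relative to untreated controls.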

Septoria tritici [8] = assay: Test A: wheat leaf blotch, preventive spray on wheat seedlings; conditions: 50 ppm, 100 = 100% disease control, 0 = no control
Procedure, shortened: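 Wheat seedlings sprayed to run-off with compound suspended in acetone/water with 250 ppm PEG400 surfactant, inoculated next day with Septoria tritici spores. Held 48 h saturated at 24 °C, then 17 days at 20 °C; disease rated 0–100% control relative to controls.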

[9] = system: Blumeria graminis f. sp. tritici; assay: Test C: wheat powdery mildew, preventive spray on wheat seedlings; conditions: 50 ppm, 100 = 100% disease control, 0 = no control
Procedure, shortened: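 Seedlings were sprayed to run-off with compound suspended (ppm) in 50/50 acetone–water containing 250 ppm PEG400, then spore-dust inoculated the following day. After 8 days at 20° C, disease control was rated visually from 0 to 100 against controls.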

[10] = system: Puccinia recondita f. sp. tritici; assay: Test B: wheat leaf rust, preventive spray on wheat seedlings; conditions: 50 ppm, 100 = 100% disease control, 0 = no control
Procedure, shortened: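 Wheat seedlings were sprayed to run-off with compound suspended at ppm concentrations in acetone/water containing 250 ppm PEG400. The next day they were inoculated with Puccinia recondita f. sp. tritici spores, held saturated at 20 °C for 24 h, then kept 7 days at 20 °C. Disease control was rated 0–100% relative to untreated controls.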

| Compound | Test F1 disease control rating (Alternaria solani [1]; Rate 10 ppm) [%] | Test F1 disease control rating (Alternaria solani [1]; Rate 50 ppm) [%] | Test E1 disease control rating (Botrytis cinerea [2]; Rate 10 ppm) [%] | Test E1 disease control rating (Botrytis cinerea [2]; Rate 50 ppm) [%] | Test B1 disease control rating ([3]; Rate 10 ppm) [%] | Test B1 disease control rating ([3]; Rate 50 ppm) [%] | Test C1 disease control rating ([4]; Rate 10 ppm) [%] | Test C1 disease control rating ([4]; Rate 50 ppm) [%] | Test A1 disease control rating (Septoria tritici [5]; Rate 10 ppm) [%] | Test A1 disease control rating (Septoria tritici [5]; Rate 50 ppm) [%] | Test E disease control rating (Botrytis cinerea [6]) [%] | Test F disease control rating (Alternaria solani [7]) [%] | Test D disease control rating (Phakopsora pachyrhizi) [%] | Test A disease control rating (Septoria tritici [8]) [%] | Test C disease control rating [9] [%] | Test B disease control rating [10] [%] |
| --- | --- | --- | --- | --- | --- | --- | --- | --- | --- | --- | --- | --- | --- | --- | --- | --- |
| Cc1nn(C)c(Nc2ccc([N+](=O)[O-])cc2F)c1-c1ccc(F)cc1Cl [Cmpd. from WO 2010/101973, reference compound] | 0 | 0 | 0 | 40 | 0 | 0 | 0 | 0 | 45 | 91 |  |  |  |  |  |  |
| Cc1nn(C)c(Nc2ccc(Cl)cc2[N+](=O)[O-])c1-c1c(F)cccc1Cl [compound 22] |  |  |  |  |  |  |  |  |  |  | 99 | 64 | 0 | 100 | 97 | 93 |
| Cc1nn(C)c(Nc2c(F)cc(Cl)cc2[N+](=O)[O-])c1-c1ccc(C#N)cc1Cl [compound 115] |  |  |  |  |  |  |  |  |  |  | 99 | 99 | 77 | 100 | 94 | 100 |
| Cc1nn(C)c(Nc2c(Br)cccc2[N+](=O)[O-])c1-c1ccc(C#N)cc1Cl [compound 125] |  |  |  |  |  |  |  |  |  |  | 99 | 9 | 0 | 100 | 0 | 96 |
| Cc1cccc([N+](=O)[O-])c1Nc1c(-c2ccc(F)cc2Cl)c(C)nn1C [compound 117] |  |  |  |  |  |  |  |  |  |  | 99 | 76 | 0 | 99 | 95 | 100 |
| Cc1nn(C)c(Nc2ccccc2[N+](=O)[O-])c1-c1ccc(F)cc1Cl [compound 126] |  |  |  |  |  |  |  |  |  |  | 100 | 68 | 0 | 98 | 96 | 85 |
| Cc1nn(C)c(Nc2cc(Cl)ccc2[N+](=O)[O-])c1-c1ccc(F)cc1Cl [compound 130] |  |  |  |  |  |  |  |  |  |  | 85 | 0 | 0 | 85 | 20 | 86 |
| COc1ccc(Nc2c(-c3c(F)cccc3Cl)c(C)nn2C)c([N+](=O)[O-])c1 [compound 197] |  |  |  |  |  |  |  |  |  |  | 98 | 98 | 0 | 100 | 93 | 99 |
| Cc1nn(C)c(Nc2c(Cl)cccc2[N+](=O)[O-])c1-c1ccc(Cl)cc1Cl [compound 133] |  |  |  |  |  |  |  |  |  |  | 97 | 0 | 0 | 100 | 0 | 86 |
| Cn1nc(C#N)c(-c2ccc(F)cc2Cl)c1Nc1c(F)cccc1[N+](=O)[O-] [compound 122] |  |  |  |  |  |  |  |  |  |  | 100 | 99 | 0 | 100 | 94 | 100 |
| Cc1cccc([N+](=O)[O-])c1Nc1c(-c2c(F)cc(F)cc2Br)c(C)nn1C [compound 169] |  |  |  |  |  |  |  |  |  |  | 98 | 0 | 0 | 100 | 100 | 100 |
| Cc1nn(C)c(Nc2ccc(OCC#N)cc2[N+](=O)[O-])c1-c1ccc(F)cc1Cl [compound 29] |  |  |  |  |  |  |  |  |  |  | 99 | 26 | 81 | 97 | 87 | 98 |
| Cc1nn(C)c(Nc2ccc(OC(F)(F)F)cc2[N+](=O)[O-])c1-c1ccc(F)cc1Cl [compound 94] |  |  |  |  |  |  |  |  |  |  | 0 | 9 | 73 | 73 | 72 | 0 |
| Cc1cc(F)c(Nc2c(-c3ccc(F)cc3F)c(C)nn2C)c([N+](=O)[O-])c1 [compound 178] |  |  |  |  |  |  |  |  |  |  | 100 | 100 | 97 | 100 | 99 | 100 |
| Cc1nn(C)c(Nc2c(Cl)cccc2[N+](=O)[O-])c1-c1ccc(F)cc1Cl [compound 108] |  |  |  |  |  |  |  |  |  |  | 100 | 77 | 86 | 100 | 97 | 100 |
